Laboratory results: patent US9814736B2, “Use of 2-methylene-19-nor-(20S)-1α,25-dihydroxyvitamin D3 and calcimimetics to treat secondary hyperparathyroidism” (Wisconsin Alumni Research Foundation, priority 2014, dated 2017)
Entries after “also recorded” stand apart in the source; their conditions may differ. Where two headings read alike, the source gives them in different places. Blank lines part the entries; values can stand above or below the compound they belong to.

Key:
[1] = system: cultured bovine parathyroid cells; details: cited from earlier work
serum PTH [2] = details: uremic dogs; cited from earlier work
serum PTH [3] = details: uremic rats; cited from earlier work
[4] = system: MRL/lpr mouse model of systemic lupus erythematosus; details: cited from earlier work
PTH [5] = experiment: Phase 2A open-label dose-ranging study of DP001 in hemodialysis patients; type: in vivo, human; details: dialysis patients, orally 3 times weekly for 4 weeks
Protocol: FIG. 1. Change in plasma iPTH (%) versus concentration of DP001 (2MD). Chronic kidney disease—stage 5 patients were given DP001 at the indicated dose orally 3 times weekly for 4 weeks. Data are presented as mean±SEM. Plasma iPTH levels were measured using the Immulite Intact iPTH Assay from Siemens Healthcare Diagnostics.
FIG. 2. Safety parameter versus concentration of DP001 (2MD) for patients of FIG. 1. Data are presented as mean (standard deviation (SD)).
A Phase 2A, open-label, dose-ranging study of DP001 in hemodialysis patients was conducted to determine a starting dose of DP001 for the Phase 2B, randomized, placebo-controlled study described in this Example. […] (See FIGS. 1 and 2). Based on the results in FIGS. 1 and 2, an efficacious and safe starting dose of 440 ng was chosen. Data are presented as mean±SEM. Plasma iPTH levels were measured using the Immulite Intact iPTH Assay from Siemens Healthcare Diagnostics.

PTH [6] = experiment: Phase 2B double-blind, randomized, placebo-controlled study in hemodialysis patients: efficacy (serum iPTH); type: in vivo, human
Protocol: FIG. 3. Study schema for study participants. Participants discontinued use of the active vitamin D analogue (AVD) and cinacalcet (if applicable) prior to a washout period and subsequent administration of placebo or DP001 (440 ng, 3×/wk, for up to 12 weeks).
FIG. 6. Percentage of subjects achieving primary endpoint of two consecutive ≧30% decrease from his/her averaged baseline iPHT level during the 12-week treatment period. Pre-dialysis serum iPTH levels were measured using the Access Intact iPTH Assay from Beckman Coulter (p<0.0001, Fisher's exact test).
FIG. 7. Secondary efficacy endpoint as measured as the mean percentage change in serum iPTH from the averaged baseline value to the average of the last 2 on-treatment values. Data are presented as mean±SEM. p<0.0001, One-way ANOVA.
(§1) Subjects were administered DP001 (2MD) or placebo accordingly the study schema of FIG. 3. Subject disposition is illustrated in FIG. 4. As indicated, 129 subject were screened. Of these, 62 were enrolled and 67 were screen failures. Of the 62 enrollees, 28 were administered a placebo and 34 were administered DP001 (440 ng, 3×/wk for up to 12 weeks). Of the 28 enrollees who were administered the placebo, 22 completed the 12 week study and 6 discontinued for reasons illustrated. Of the 34 enrollees who were administered DP001, 31 completed the 12 week study and 3 discontinued for reasons illustrated.
The Primary Efficacy Endpoint was the proportion of subjects who achieved two consecutive ≧30% decrease from his/her Averaged Baseline iPTH level during the 12-week treatment period. (See FIG. 6). Pre-dialysis serum iPTH levels were measured using the Access Intact iPTH Assay from Beckman Coulter (p<0.0001, Fisher's exact test).
The secondary efficacy endpoint was the mean percentage change in serum iPTH from the Averaged Baseline value to the average of the last 2 on-treatment values. Data are presented in FIG. 7 as mean±SEM. p<0.0001, One-way ANOVA.

[7] = Phase 2B double-blind, randomized, placebo-controlled study in hemodialysis patients: safety; type: in vivo, human
Protocol: FIG. 9. Study enrollees exceeding safety threshold values for iPTH, Ca, and P.
FIG. 10. Number of adverse events (AEs) and serious adverse events (SAEs) for study enrollees.
as §1
The remaining 8 subjects were only dose-adjusted downward, indicating a starting dose lower than 440 ng would have been sufficient to suppress PTH. […] Only one patient receiving DP001 (2MD) had two consecutive corrected serum calcium values>10.5 mg/dL.

Compound: C=C1/C(=C\C=C2/CCC[C@]3(C)C([C@H](C)CC#CC(C)(C)O)=CC[C@@H]23)C[C@@H](O)C[C@@H]1O [1,25-(OH)2-16-ene-23-yne-D3]
- suppression of PTH secretion relative to calcitriol [1]: nearly as effective as calcitriol

Compound: C=C1/C(=C\C=C2/CCC[C@]3(C)[C@@H]([C@H](C)OCCC(C)(C)O)CC[C@@H]23)C[C@@H](O)C[C@@H]1O [22-oxacalcitriol]
- suppression of serum PTH (serum PTH [2]): suppress serum PTH
- suppression of serum PTH (serum PTH [3]): suppress serum PTH
- suppression of PTH secretion relative to calcitriol [1]: nearly as effective as calcitriol

Compound: C=C1C(=CC=C2CCCC3(C)C2CCC3C(C)CCCCCC(C)(C)O)CC(O)CC1O (stereo not shown) [1,25-(OH)2-24-dihomo-D3]
- suppression of PTH secretion relative to calcitriol [1]: nearly as effective as calcitriol

Compound: C=C1/C(=C\C=C2/CCC[C@]3(C)[C@@H]([C@H](C)CCCC(C)(C)O)CC[C@@H]23)C[C@@H](O)C[C@@H]1O [calcitriol, 1α,25-(OH)2D3]
- hypercalcemia ([4]; accompanying calcitriol treatment): severe hypercalcemia always accompanied this treatment
- proteinuria ([4]; calcitriol administered through the diet): completely prevents proteinuria

- change in serum calcium (PTH [5]): without changing serum calcium
Compound: C=C1[C@H](O)CC(=C/C=C2\CCC[C@@]3(C)C2CCC3[C@@H](C)CCCC(C)(C)O)C[C@H]1O (stereo partly drawn) [DP001, 2-methylene-19-nor-(20S)-1α,25-dihydroxyvitamin D3]
- suppression of PTH (plasma iPTH) (PTH [5]): suppresses PTH in dialysis patients in a dose-dependent fashion
- subjects achieving primary endpoint (two consecutive ≧30% decrease from averaged baseline iPTH) (PTH [6]; CKD-5D, 3x weekly oral, starting dose 440 ng, 12-week treatment, p<0.0001): 78 % of subjects
- reduction of serum iPTH (secondary endpoint: mean percentage change from averaged baseline) (PTH [6]; CKD-5D, 3x weekly oral, starting dose 440 ng, by 12 weeks, p<0.0001): 46%
- PTH lowering in subjects previously treated with AVD and cinacalcet (calcimimetic) (PTH [6]; DP001 alone, CKD-5D patients previously on cinacalcet): effectively reduced PTH levels; also recorded: successfully treats SHPT in patients previously taking a calcimimetic
- serum calcium values ([7]; 12-week treatment): remained in the normal range
- patients with two consecutive corrected serum calcium values >10.5 mg/dL ([7]; 34 enrollees on DP001): one
- subjects that reached the safety threshold for PTH ([7]; 34 enrollees on DP001, 440 ng 3x/wk up to 12 weeks): 14 subjects
- adverse event reporting versus placebo ([7]; between treatment groups): no significant differences in adverse event reporting between treatment groups
- patients surpassing corrected-serum calcium and phosphorus product safety threshold ([7]; both had high serum phosphorus at baseline): two
- serious adverse events (SAEs) related to drug ([7]; judged by investigators): No serious adverse events (SAEs) were judged by the investigators to be related to DP001

Compound: C=C1C(=CC=C2CCCC3(C)C2CCC3C(C)C=CCCCCC(C)(C)O)CC(O)CC1O (stereo not shown) [1,25-(OH)2-24-trihomo-22-ene-D3]
- suppression of PTH secretion relative to calcitriol [1]: nearly as effective as calcitriol
